Measured values: patent publication US4547509A, “5,6,7-Quinoline carbanilates and method of treating ischemic heart disease therewith” (USV Pharmaceutical Corp., priority 1983, dated 1985)

Tests used:
rat adipocyte lipolysis = assay: Rat Adipocyte Assay (epinephrine-stimulated lipolysis, glycerol release); format: cell-based; conditions: epinephrine 3 μM plus methylisobutylxanthine 10 μM, 1 hour at 37° C.; for inhibition at 30 µM: 30 μM compound, read-out: Adipocyte % Inhib. at 30 μM; for IC50: read-out: Adipocyte I50; for inhibition at 200 µM: 200 μM compound, read-out: Adipocyte % Inhib. at 200 μM
Method: Abdominal fat pads were removed from male rats weighing 200-250 grams and placed in Krebs-bicarbonate buffer gassed with 95% O2 /5% CO2. The fat pads were digested with collagenase for 1 hour at 37° C., washed twice with Krebs-bicarbonate buffer and distributed among a set of 20 ml plastic counting vials. Two such vials received only buffer and cells (4 ml) but no angonists or antagonists. The remaining vials received epinephrine (3 μM) plus the phosphodiesterase inhibitor methylisobutylxanthine (10 μM). Test compounds were dissolved in DMSO or water to a concentration of 20 mM or 40 μl was added to the buffer plus cells in the counting vials. The final compound concentration for routine screening was 200 μM (final concentration of DMSO=1%).
The cells were incubated for 1 hour at 37° C. under 95% O2 /5% CO2 atmosphere. The incubation was stopped by placing the vials in crushed ice. The cells and medium were transferred to test tubes, centrifuged and the cell layer removed by aspiration. The aqueous phase was assayed for glycerol using the enzyme glycerol dehydrogenase.
The glycerol dehydrogenase assay for glycerol depends on the enzyme catalyzed conversion of glycerol to glyceraldehyde and NAD to NADH. The assay can detect as little as 5-10 nanomoles of glycerol. The aqueous phase, following removal of cells, usually contained about 50 to 80 nanomoles of glycerol per 300 μl of assayed sample if no inhibitory activity was present. Samples from the control tubes (no agonist) usually contained 0-5 nanomoles of glycerol per 300 μl of sample.

Canine cardiac lipases [1] = assay: Myocardial Lipase Assay; format: biochemical; conditions: 100 μM compound, 3.0% DMSO, triolein emulsion, pH 6.8, tested in duplicate
Method: All compounds were dissolved in DMSO (final concentration 3.0%) and tested in duplicate at a concentration of 100 μm. Canine cardiac lipases were obtained by extracting washed heart membranes with buffer plus heparin and a small amount of Triton X-100 detergent. Because these enzymes are only active at an oil-water interface, the enzyme reaction is run in an oil-water emulsion that contains triolein substrate, Tris buffer (50 mM, pH 6.8) and a small amount of bovine serum albumin (0.5%) added to stabilize the emulsion. A small amount of tritiated triolein was added to the unlabelled triolein substrate. Tritium-labelled oleic acid released by the lipases was extracted into hexane, separated from unreacted triolein and counted in a scintillation counter. Inhibitory agents reduce the amount of radioactivity appearing in the free fatty acid fraction isolated in the extraction procedure.

Canine cardiac lipases [2] = assay: Myocardial Lipase Assay; format: biochemical; conditions: triolein emulsion, pH 6.8; read-out: Lipase I50

In the case of `COc1ccc(NC(=O)Oc2ccc3cccnc3c2)cc1` [Example 1], the inhibition at 30 µM (rat adipocyte lipolysis) is reported as 0% and the “Lipase % Inh. at 100 μM” value (Canine cardiac lipases [1]) is reported as 60%.

With `COc1ccc(NC(=O)Oc2ccc3ncccc3c2)cc1` [Example 2, 6-quinolyl-4-methoxy carbanilate] the inhibition at 30 µM (rat adipocyte lipolysis) was 8% and the “Lipase % Inh. at 100 μM” value (Canine cardiac lipases [1]) was 64%.

With `COc1ccc(NC(=O)Oc2cccc3ncccc23)cc1` [Example 3, 5-quinolyl-4-methoxy carbanilate] the inhibition at 30 µM (rat adipocyte lipolysis) was 1% and the “Lipase % Inh. at 100 μM” value (Canine cardiac lipases [1]) was 63%.

`COc1ccccc1NC(=O)Oc1ccc2cccnc2c1` [Example 4, 7-quinolyl-2-methoxy carbanilate] showed an IC50 (Canine cardiac lipases [2]) of 48 µM and an IC50 (rat adipocyte lipolysis) of 80 µM.

`COc1ccccc1NC(=O)Oc1ccc2ncccc2c1` [Example 5, 6-quinolyl-2-methoxy carbanilate] showed an IC50 (Canine cardiac lipases [2]) of 42 µM and an IC50 (rat adipocyte lipolysis) of 30 µM.

Compound `COc1ccccc1NC(=O)Oc1cccc2ncccc12` [Example 6, 5-quinolyl-2-methoxy carbanilate] has an IC50 (Canine cardiac lipases [2]) of 48 µM and an inhibition at 200 µM (rat adipocyte lipolysis) of 31%.

In the case of `COc1cccc(NC(=O)Oc2ccc3cccnc3c2)c1` [Example 7, 7-quinolyl-3-methoxy carbanilate], the inhibition at 200 µM (rat adipocyte lipolysis) is reported as 25% and the “Lipase % Inh. at 100 μM” value (Canine cardiac lipases [1]) is reported as 52%.

`CCOC(=O)c1ccc(NC(=O)Oc2ccc3cccnc3c2)cc1` [Example 8, 7-quinolyl-4-carbethoxy carbanilate] was tested, and the inhibition at 200 µM (rat adipocyte lipolysis) was 18% and the “Lipase % Inh. at 100 μM” value (Canine cardiac lipases [1]) was 46%.

In the case of `O=C(Nc1ccccc1Cl)Oc1ccc2cccnc2c1` [Example 9, 7-quinolyl-2-chloro carbanilate], the “Lipase % Inh. at 100 μM” value (Canine cardiac lipases [1]) is reported as 6%.

`Cc1ccccc1NC(=O)Oc1ccc2cccnc2c1` [Example 10, 7-quinolyl-2-methyl carbanilate] was tested, and the inhibition at 200 µM (rat adipocyte lipolysis) was 20% and the “Lipase % Inh. at 100 μM” value (Canine cardiac lipases [1]) was 45%.

`O=C(Nc1ccccc1C(F)(F)F)Oc1ccc2cccnc2c1` [Example 11, 7-quinolyl-2-trifluoromethyl carbanilate] was tested, and the “Lipase % Inh. at 100 μM” value (Canine cardiac lipases [1]) was 12%.

In the case of `COc1ccc(CCNC(=O)Oc2ccc3cccnc3c2)cc1` [Example 12, 7-quinolyl-4-methoxy phenethyl carbamate], the inhibition at 100 µM (rat adipocyte lipolysis; 100 μM compound, read-out: Adipocyte % Inhib. at 100 μM) is reported as 84% and the “Lipase % Inh. at 100 μM” value (Canine cardiac lipases [1]) is reported as 97%.
